Results taken from US11773085B2 (Foghorn Therapeutics Inc., priority 2018, dated 2023).

Tests used:
Assay type in all cases: cell-based
[1] = tested on: synovial sarcoma cell lines (SYO1, Yamato, HS-SY-II, and ASKA); experiment: Growth of synovial sarcoma cell lines (IncuCyte confluency, crystal violet, colony imaging); conditions: 1 μM in crystal violet assay, FIGS. 5, 6, 7
Experimental: (§1) Cells were treated with DMSO or the BRD9 degrader, Compound 1, at indicated concentrations, and proliferation was monitored from day 7 to day 14 by measuring confluency over time using an IncuCyte live cell analysis system (FIG. 5). Growth medium and compounds were refreshed every 3-4 days.
(§2) Cells were seeded into 12-well plates and treated with DMSO, 1 μM BRD9 inhibitor, Compound 2 (also known as BI-7273, see Martin et al, J Med Chem. 59(10):4462-4475 (2016); see structure of compound 2 below), or 1 μM BRD9 degrader, Compound 1.
(§3) The number of cells was optimized for each cell line. Growth medium and compounds were refreshed every 3-5 days. SYO1, Yamato, A549, 293T and HS-SY-II cells were fixed and stained at day 11. ASKA cells were fixed and stained at day 23. Staining was done by incubation with crystal violet solution (0.5 g Crystal Violet, 27 ml 37% Formaldehyde, 100 mL 10×PBS, 10 mL Methanol, 863 dH20 to 1 L) for 30 min followed by 3× washes with water and drying the plates for at least 24 h at room temperature. Subsequently plates were scanned on an Odyssey CLx Imaging system (FIG. 6).
(§4) Cells were seeded into 96-well ultra low cluster plate (Costar, #7007) in 200 μL complete media and treated at day 2 with DMSO, Staurosporin, or BRD9 degarder, Compound 1, at indicated doses (FIG. 7). Media and compounds were changed every 5 d and cell colonies were imaged at day 14.

[2] = tested on: non-synovial control cancer cell lines (293T, A549, G401); experiment: Growth of non-synovial control cancer cell lines (crystal violet, colony imaging); conditions: FIGS. 5, 6, 7
Experimental: as §1, §2, §3, §4

[3] = tested on: synovial sarcoma cell lines (SYO1, HS-SY-II, and ASKA); experiment: Growth of synovial sarcoma cell lines, crystal violet staining at day 14
Experimental: (§5) Cells were seeded into 6-well or 12-well plates and were treated daily with a BRD9 degrader (Compound 1), a bromo-domain BRD9 binder (Compound 2), E3 ligase binder (lenalidomide), DMSO, or staurosporin (positive control for cell killing), at indicated concentrations. The number of cells was optimized for each cell line. Growth media was refreshed every 5 days. By day 14, medium was removed, cells were washed with PBS, and stained using 500 μL of 0.005% (w/v) crystal violet solution in 25% (v/v) methanol for at least 1 hour at room temperature. Subsequently plates were scanned on an Odyssey CLx Imaging system.

[4] = tested on: non-synovial control cancer cell lines (RD, HCT116, and Calu6); experiment: Growth of non-synovial control cancer cell lines, crystal violet staining at day 14; conditions: treated daily, FIG. 9
Experimental: as §5

SYO1 cells [5] = experiment: Cell cycle analysis, Click-iT Plus EdU Flow Cytometry Assay; conditions: SYO1, 200 nM or 1 μM, 8 or 13 days, compared to DMSO and lenalidomide
Experimental: (§6) SYO1 cells were treated for 8 or 13 days with DMSO, a BRD9 degrader (Compound 1) at 200 nM or 1 μM, or an E3 ligase binder (lenalidomide) at 200 nM. Compounds were refreshed every 5 days. Cell cycle analysis was performed using the Click-iT™ Plus EdU Flow Cytometry Assay (Invitrogen). The apoptosis assay was performed using the Annexin V-FITC Apoptosis Detection Kit (Sigma A9210). Assays were performed according to the manufacturer's protocol.

SYO1 cells [6] = experiment: Apoptosis assay, Annexin V-FITC Apoptosis Detection Kit; conditions: SYO1, 200 nM or 1 μM, 8 days, compared to DMSO controls
Experimental: as §6

COc1cc(-c2cn(C)c(=O)c3cnccc23)cc(OC)c1CN(C)CC(=O)NCCOCCOCCNc1cccc2c1C(=O)N(C1CCC(=O)NC1=O)C2=O (stereo not shown) [Compound 1]
inhibition of cell growth [1]: results in inhibition of the growth of the cells
inhibition of cell growth [2]: does not result in inhibition of the growth
inhibition of cell growth ([3]; SYO1, HS-SY-II, ASKA, treated daily, day 14, FIG. 8): resulted in inhibition of the growth of the cells
growth inhibition compared with the other agents tested ([3]; all synovial cell lines, versus Compound 2 and lenalidomide): most significant growth inhibition
inhibition of cell growth [4]: did not result in inhibition of the growth
numbers of cells in the S-phase of the cell cycle (SYO1 cells [5]): reduced numbers of cells in the S-phase
numbers of early- and late-apoptotic cells (SYO1 cells [6]): increased numbers of early- and late-apoptotic cells
